Reference: patent US10479819B2 (priority 2014, dated 2019)
Starred links: 1 amine or outer side, 2 acyl side, 3 side chain; linkers in the order of their positions; H or OH if unused. Non-standard residues stand in square brackets, D forms with d. Residues, ends and D or L forms follow the SMILES beside them. Groups on a side chain read outwards from the residue. *: point of attachment. C18 diacid = O=C(O)CCCCCCCCCCCCCCCCC(=O)*; γGlu = O=C(O)[C@H](CCC(=O)[*:2])N[*:1]; PEG2 = NCCOCCOCCC(=O)O; Aib = CC(C)(N)C(=O)O

Columns and labels:
male C57B1/6J mice = experiment: Oral glucose tolerance test in male C57B1/6J mice; format: in vivo; conditions: 250 μg/kg; for AUC of blood glucose in all four OGTT curve periods (0-480 min) compared with carrier (PBS): P<0.05; for effect on oral glucose tolerance: male C57B1/6J mice
Protocol: 12-16 week-old male C57B1/6J mice (Nanjing University model animal research center) were randomly divided into groups 8 in each group, according to similar blood glucose (assessed by the blood samples obtained from the tail tip). After fasting (for 6 hours), the animals were administrated, and about 4 hours later, initial blood samples (fasting blood glucose level) were taken. Subsequently, the animals were administrated with an oral dose of glucose, and then put back into their cages (t=0). Blood glucose was measured at t=15 minutes, t=30 minutes, t=60 minutes, t=90 minutes and t=120 minutes. And then the animals were administrated with an oral dose of glucose again, and blood glucose was tracked until 8 hours.

[1] = Pharmacokinetic analysis after IV or SC administration in male CD1 mice; conditions: for Tmax / half-life: iv
Protocol: Pharmacokinetic parameters of the drugs were calculated by methods of model dependence (for data obtained from IV) and model independence (data obtained from SC).

DIO mice = experiment: Body weight reduction in DIO (obese) mice; format: in vivo; conditions: 250 μg/kg SC daily, day 11 to day 30, DIO mice
Text: Forty 25-week-old DIO mice (Nanjing University model animal research center) were randomly divided into five groups (compound 4, 5, 6, 7, and normal saline group), 8 in each group, having no difference in the basis weight of each group.

human GLP-1R = target: T1, human GLP-1R (Homo sapiens, UniProt P43220); experiment: In vitro activity on GLP-1R, CRE-luciferase HEK-293 cells; format: cell-based; conditions: for GLP-1R/GCGR: ratio of EC50 GLP-1R to EC50 GCGR
T1 construct: expressed in transfected cells
Protocol: 5000 of HEK-293 cells, which are used in CRE-luciferase system and express human GCGR or GLP-1R stably, were inoculated into 384 well plates according to […] DMEM/10% FBS media/well. […] After incubation, […] of luciferase reagent was added directly to each plate and mixed gently for 2 minutes. The plates were placed into an Elmer Perkin plate reader for reading. Concentration curve of the compound was made by drawing software Prism 5, and the EC50 value was calculated.

T1 sequence (P43220 24-463): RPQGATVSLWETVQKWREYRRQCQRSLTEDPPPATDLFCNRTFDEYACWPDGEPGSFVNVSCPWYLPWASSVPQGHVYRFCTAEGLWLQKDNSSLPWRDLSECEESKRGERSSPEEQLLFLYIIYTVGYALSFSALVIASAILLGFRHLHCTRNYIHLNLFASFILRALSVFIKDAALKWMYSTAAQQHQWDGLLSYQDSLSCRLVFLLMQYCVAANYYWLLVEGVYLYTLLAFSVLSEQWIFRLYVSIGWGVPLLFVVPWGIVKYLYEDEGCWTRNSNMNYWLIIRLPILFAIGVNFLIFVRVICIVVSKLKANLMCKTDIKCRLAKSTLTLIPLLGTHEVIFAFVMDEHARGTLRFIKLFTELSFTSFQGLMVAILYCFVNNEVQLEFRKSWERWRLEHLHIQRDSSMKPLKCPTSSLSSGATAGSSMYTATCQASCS

Compound	AUC of blood glucose in all four OGTT curve periods (0-480 min) compared with carrier (PBS) (male C57B1/6J mice)	effect on oral glucose tolerance (male C57B1/6J mice)	clinical adverse effect ([1]; mouse, in vivo)	Tmax ([1]; mouse, in vivo)	half-life ([1]; mouse, in vivo)	peak time ([1]; mouse, in vivo, sc)	weight loss (DIO mice)	body weight compared with normal saline group (DIO mice; P<0.05)	GLP-1R/GCGR (human GLP-1R)	clinical adverse effect ([1]; IV or SC route, male CD1 mice)	EC50 (human GLP-1R)
CCCCCCCCCCCCCCCC(=O)N[C@@H](CCC(=O)NCCOCCOCCC(=O)NCCOCCOCCC(=O)NCCCC[C@H](NC(=O)[C@H](CC(=O)O)NC(=O)[C@H](CO)NC(=O)[C@@H](NC(=O)[C@H](Cc1ccccc1)NC(=O)[C@@H](NC(=O)CNC(=O)[C@H](CCC(N)=O)NC(=O)[C@@H](CO)NC(=O)[C@@H](N)Cc1c[nH]cn1)[C@@H](C)O)[C@@H](C)O)C(=O)N[C@@H](CO)C(=O)N[C@@H](CCCCN)C(=O)N[C@@H](Cc1ccc(O)cc1)C(=O)N[C@@H](CC(C)C)C(=O)N[C@@H](CC(=O)O)C(=O)NC(C)(C)C(=O)N[C@@H](CCCNC(=N)N)C(=O)N[C@@H](CCCNC(=N)N)C(=O)N[C@@H](C)C(=O)N[C@@H](CCC(N)=O)C(=O)N[C@@H](CC(=O)O)C(=O)N[C@@H](Cc1ccccc1)C(=O)N[C@H](C(=O)N[C@@H](CCC(N)=O)C(=O)N[C@@H](Cc1c[nH]c2ccccc12)C(=O)N[C@@H](CC(C)C)C(=O)N[C@@H](CCSC)C(=O)N[C@@H](CC(N)=O)C(=O)N[C@H](C(=O)NCC(=O)NCC(=O)N1CCC[C@H]1C(=O)N[C@@H](CO)C(=O)N[C@@H](CO)C(=O)NCC(=O)N[C@@H](C)C(=O)N1CCC[C@H]1C(=O)N1CCC[C@H]1C(=O)N1CCC[C@H]1C(=O)N[C@@H](CO)C(N)=O)[C@@H](C)O)C(C)C)C(=O)O [Compound 7]	significantly decreased	significantly reduced the oral glucose tolerance	no clinical adverse effect	~12 h	4 to 6 h	more than 12 hours	about 20%	significantly lower	–	–	–
His-Aib-Gln-Gly-Thr-Phe-Thr-Ser-Asp-Lys(PEG2-PEG2-Glu-CO(CH2)14CH3)-Ser-Lys-Tyr-Leu-Asp-Glu-Arg-Arg-Ala-Gln-Asp-Phe-Val-Gln-Trp-Leu-Leu-Asp-Gly-Gly-Pro-Ser-Ser-Gly-Ala-Pro-Pro-Pro-Ser-NH2 [Compound 19]	significantly decreased	significantly reduced the oral glucose tolerance	–	–	–	–	–	–	0.25	–	–
CC(C)C[C@H](NC(=O)[C@H](CC(C)C)NC(=O)[C@H](Cc1c[nH]c2ccccc12)NC(=O)[C@H](CCC(N)=O)NC(=O)[C@@H](NC(=O)[C@H](Cc1ccccc1)NC(=O)[C@H](CC(=O)O)NC(=O)[C@H](CCC(N)=O)NC(=O)[C@H](C)NC(=O)[C@H](CCCNC(=N)N)NC(=O)[C@H](CCCNC(=N)N)NC(=O)C(C)(C)NC(=O)[C@H](CC(=O)O)NC(=O)[C@H](CC(C)C)NC(=O)[C@H](Cc1ccc(O)cc1)NC(=O)[C@H](CCCCN)NC(=O)[C@H](CO)NC(=O)[C@H](CCCCNC(=O)CCOCCOCCNC(=O)CCOCCOCCNC(=O)CC[C@H](NC(=O)CCCCCCCCCCCCCCCCC(=O)O)C(=O)O)NC(=O)[C@H](CC(=O)O)NC(=O)[C@H](CO)NC(=O)[C@@H](NC(=O)[C@H](Cc1ccccc1)NC(=O)[C@@H](NC(=O)CNC(=O)[C@H](CCC(N)=O)NC(=O)C(C)(C)NC(=O)[C@@H](N)Cc1c[nH]cn1)[C@@H](C)O)[C@@H](C)O)C(C)C)C(=O)N[C@@H](CC(=O)O)C(=O)NCC(=O)NCC(=O)N1CCC[C@H]1C(=O)N[C@@H](CO)C(=O)N[C@@H](CO)C(=O)NCC(=O)N[C@@H](C)C(=O)N1CCC[C@H]1C(=O)N1CCC[C@H]1C(=O)N1CCC[C@H]1C(=O)N[C@@H](CO)C(N)=O [Compound 22] (H-H[Aib]QGTFTSDK([PEG2-PEG2-γGlu-C18 diacid])SKYLD[Aib]RRAQDFVQWLLDGGPSSGAPPPS-NH2)	significantly decreased	significantly reduced the oral glucose tolerance	–	~12 h	4 to 6 h	–	–	–	0.19	no clinical adverse effect	0.06 nM
CCCCCCCCCCCCCCCC(=O)N[C@@H](CCC(=O)NCCOCCOCCC(=O)NCCOCCOCCC(=O)NCCCC[C@H](NC(=O)[C@H](CC(=O)O)NC(=O)[C@H](CO)NC(=O)[C@@H](NC(=O)[C@H](Cc1ccccc1)NC(=O)[C@@H](NC(=O)CNC(=O)[C@H](CCC(N)=O)NC(=O)C(C)(C)NC(=O)[C@@H](N)Cc1c[nH]cn1)[C@@H](C)O)[C@@H](C)O)C(=O)N[C@@H](CO)C(=O)N[C@@H](CCCCN)C(=O)N[C@@H](Cc1ccc(O)cc1)C(=O)N[C@@H](CC(C)C)C(=O)N[C@@H](CC(=O)O)C(=O)NC(C)(C)C(=O)N[C@@H](CCCNC(=N)N)C(=O)N[C@@H](CCCNC(=N)N)C(=O)N[C@@H](C)C(=O)N[C@@H](CCC(N)=O)C(=O)N[C@@H](CC(=O)O)C(=O)N[C@@H](Cc1ccccc1)C(=O)N[C@H](C(=O)N[C@@H](CCC(N)=O)C(=O)N[C@@H](Cc1c[nH]c2ccccc12)C(=O)N[C@@H](CC(C)C)C(=O)N[C@@H](CC(C)C)C(=O)N[C@@H](CC(=O)O)C(=O)NCC(=O)NCC(=O)N1CCC[C@H]1C(=O)N[C@@H](CO)C(=O)N[C@@H](CO)C(=O)NCC(=O)N[C@@H](C)C(=O)N1CCC[C@H]1C(=O)N1CCC[C@H]1C(=O)N1CCC[C@H]1C(=O)N[C@@H](CO)C(N)=O)C(C)C)C(=O)O [Compound 21]	significantly decreased	significantly reduced the oral glucose tolerance	–	~12 h	4 to 6 h	–	–	–	0.23	no clinical adverse effect	–
CC[C@H](C)[C@H](NC(=O)[C@H](Cc1ccccc1)NC(=O)[C@H](CCC(=O)O)NC(=O)[C@H](CCCCNC(=O)CCOCCOCCNC(=O)CCOCCOCCNC(=O)CC[C@H](NC(=O)CCCCCCCCCCCCCCCCC(=O)O)C(=O)O)NC(=O)[C@H](C)NC(=O)[C@H](C)NC(=O)[C@H](CCCCN)NC(=O)[C@H](CCC(=O)O)NC(=O)[C@H](CC(=O)O)NC(=O)[C@H](CC(C)C)NC(=O)[C@H](Cc1ccc(O)cc1)NC(=O)[C@H](CCCCN)NC(=O)[C@H](CO)NC(=O)[C@H](Cc1ccc(O)cc1)NC(=O)[C@H](CC(=O)O)NC(=O)[C@H](CO)NC(=O)[C@@H](NC(=O)[C@H](Cc1ccccc1)NC(=O)[C@@H](NC(=O)CNC(=O)[C@H](CCC(N)=O)NC(=O)[C@@H](CO)NC(=O)[C@@H](N)Cc1c[nH]cn1)[C@@H](C)O)[C@@H](C)O)C(=O)N[C@@H](CCC(=O)O)C(=O)N[C@@H](Cc1c[nH]c2ccccc12)C(=O)N[C@@H](CC(C)C)C(=O)N[C@@H](CC(C)C)C(=O)N[C@@H](CCCNC(=N)N)C(=O)N[C@@H](C)C(N)=O [Compound 2] (H-H[dS]QGTFTSDYSKYLDEKAAK([PEG2-PEG2-γGlu-C18 diacid])EFIEWLLRA-NH2)	–	–	–	–	–	–	–	–	0.1	–	–
CC(C)C[C@H](NC(=O)[C@H](CC(C)C)NC(=O)[C@H](Cc1c[nH]c2ccccc12)NC(=O)[C@H](CCC(N)=O)NC(=O)[C@@H](NC(=O)[C@H](Cc1ccccc1)NC(=O)[C@H](CC(=O)O)NC(=O)[C@H](CCC(N)=O)NC(=O)[C@H](C)NC(=O)[C@H](CCCNC(=N)N)NC(=O)[C@H](CCCNC(=N)N)NC(=O)[C@H](CCC(=O)O)NC(=O)[C@H](CC(=O)O)NC(=O)[C@H](CC(C)C)NC(=O)[C@H](Cc1ccc(O)cc1)NC(=O)[C@H](CCCCN)NC(=O)[C@H](CO)NC(=O)[C@H](CCCCNC(=O)CCOCCOCCNC(=O)CCOCCOCCNC(=O)CC[C@H](NC(=O)CCCCCCCCCCCCCCCCC(=O)O)C(=O)O)NC(=O)[C@H](CC(=O)O)NC(=O)[C@H](CO)NC(=O)[C@@H](NC(=O)[C@H](Cc1ccccc1)NC(=O)[C@@H](NC(=O)CNC(=O)[C@H](CCC(N)=O)NC(=O)C(C)(C)NC(=O)[C@@H](N)Cc1c[nH]cn1)[C@@H](C)O)[C@@H](C)O)C(C)C)C(=O)N[C@@H](CC(=O)O)C(=O)NCC(=O)NCC(=O)N1CCC[C@H]1C(=O)N[C@@H](CO)C(=O)N[C@@H](CO)C(=O)NCC(=O)N[C@@H](C)C(=O)N1CCC[C@H]1C(=O)N1CCC[C@H]1C(=O)N1CCC[C@H]1C(=O)N[C@@H](CO)C(N)=O [Compound 20] (H-H[Aib]QGTFTSDK([PEG2-PEG2-γGlu-C18 diacid])SKYLDERRAQDFVQWLLDGGPSSGAPPPS-NH2)	significantly decreased	significantly reduced the oral glucose tolerance	–	~12 h	4 to 6 h	–	–	–	0.18	no clinical adverse effect	–
